Assay results from publication PMC6721044, “Ratiometric BRET Measurements of ATP with a Genetically-Encoded Luminescent Sensor” (Sensors (Basel, Switzerland), 2019).

Target: T1, ARSeNL (mScarlet-ε-NanoLuc); ε subunit of the ATP synthase from Bacillus subtilis (Bacillus subtilis, UniProt P37812)
T1 construct: gene atpC; isolated ε subunit (from ATeam1.03) flanked by N-terminal mScarlet and C-terminal NanoLuc as reporters
Experiment: BRET ratio (mScarlet/NanoLuc) dose-response, microplate reader, Hill fit
Format: binding
Details: read-out: KD (apparent)

T1 sequence (P37812 whole entry): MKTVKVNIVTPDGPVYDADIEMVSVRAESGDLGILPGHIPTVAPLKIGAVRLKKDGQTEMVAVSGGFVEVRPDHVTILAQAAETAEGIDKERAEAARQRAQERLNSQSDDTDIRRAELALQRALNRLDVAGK

## Nc1ncnc2c1ncn2[C@@H]1O[C@H](COP(=O)(O)OP(=O)(O)OP(=O)(O)O)[C@@H](O)[C@H]1O [ATP]
  Kd: 1100 ± 100 µM
